From patent US12485102B2, “Methods and compositions for treating cancer” (The Wistar Institute of Anatomy and Biology, priority 2017, dated 2025)

Key:
[1] = tested on: CD8+ T cells from OT-1 mice; assay: Cell recovery and blast formation of in vitro stimulated, drug-treated OT-1 CD8+ T cells; type: cell-based
B16OVA tumor cells = assay: Adoptive transfer of drug-pre-treated OT-1 cells into B16OVA tumor-bearing mice: tumor progression; details: cells treated with 100 μM of FFA, last 2 days; n=5/group
Protocol: The cells were then treated for 2 days with 50 μM fenofibric acid or DMSO. Cells were injected i.v. into C57B1/6 recipient mice that had been injected 5 days earlier with B16OVA tumor cells. Tumor sizes were monitored. Tumor weights were measured at necropsy.
Mice were injected with 10^5 B16.F10 melanoma cells that were transduced to express the immunodominant epitope of ovalbumin [sequence]
Tumor growth in the mouse models was monitored for up to 24 days.
To assess how metabolic reprogramming affects tumor antigen-specific CD8+ T cells within a TME, mice were challenged with B16OVA tumor cells. […] Tumor progression was monitored and once tumors became large, splenocytes and tumor-infiltrating cells were isolated and characterized.
In another experiment, we treated cells with 100 μM of FFA (or as a control DMSO) for the last 2 days of culture. […] We analyzed tumor weights and splenocytes and tumor infiltrating lymphocytes (TILs) at necropsy for recovery, phenotypes, and functions of the donor OT-1 cells.

[2] = tested on: CD8+ T cells from OT-1 mice; assay: Seahorse oxygen consumption rates (OXPHOS) of drug-treated OT-1 CD8+ T cells; type: cell-based; details: 10 or 100 μM, last 2 days of culture; FIG. 10
Protocol: They were then analyzed for oxygen consumption rates (OCR) by Seahorse (left graph). In addition, after culture all live cells, CD8+ cells and activated CD44+CD8+ cells were counted to assess potential toxicity.
Seahorse experiments were conducted to further characterize the effects of FF on CD8+ T cell metabolism.
Cells were treated with 10 or 100 μM of FFA or FFP for the last 2 days of culture. […] See, FIG. 9. Both drugs increased OXPHOS as shown by increased oxygen consumption rates.

[3] = tested on: CD8+ T cells from OT-1 mice; assay: Phenotype, gene expression, fatty acid uptake and effector functions of drug-treated OT-1 CD8+ T cells in vitro
From the text: We initially tested stimulation of OT-1 T cells by the polyclonal activators anti-CD3 and anti-CD28 or by their cognate peptide [sequence] and IL-2.

CC(C)(Oc1ccc(C(=O)c2ccc(Cl)cc2)cc1)C(=O)O [FFA, fenofibric acid]
toxicity in the in vitro or ex vivo pretreatment of the T cells ([1]; compared with fenofibrate, FIG. 8): reduced toxicity | mice that developed progressing tumors (B16OVA tumor cells): 2 mice | mice with only small tumors that failed to grow (B16OVA tumor cells): 3 mice

C[C@H](NC(=O)C(C)(C)Oc1ccc(C(=O)c2ccc(Cl)cc2)cc1)C(=O)N[C@@H](CCC(=O)O)C(=O)O [FFP, (S)-2-((S)-2-(2-(4-(4-chlorobenzoyl)phenoxy)-2-methylpropanamido)propanamido)pentanedioic acid]
blast formation ([1]; 100 μM, last 2 days of culture, FIG. 9): reduced blast formation | oxygen consumption rates (OXPHOS) [2]: increased | fatty acid uptake ([3]; 10 or 100 μM, last 2 days of culture): more pronounced

CC(C)OC(=O)C(C)(C)Oc1ccc(C(=O)c2ccc(Cl)cc2)cc1 [FF, fenofibrate]
T cell proliferation in response to IL-2 ([3]; FF-treated cells): no effect
